Like-named read-outs stand apart in the source and are kept apart here.
Key:
[1] = test system: CYPES; assay type: in vivo, Cyperus esculentus
Procedure: (§1) Seeds or nutlets of the desired test plant species were planted in a soil matrix prepared by mixing a loam or sandy loam soil (e.g., 28.6 percent silt, 18.8 percent clay, and 52.6 percent sand, with a pH of about 5.8 and an organic matter content of about 1.8 percent) and calcareous grit in an 80 to 20 ratio. The soil matrix was contained in plastic pots with a volume of 1 quart and a surface area of 83.6 square centimeters (cm^2). […] The plants were grown for 8-22 days in a greenhouse with an approximate 14 hour (h) photoperiod which was maintained at about 29° C. during the day and 26° C. during the night. Nutrients (Peters Excel® 15-5-15 5-Ca 2-Mg and iron chelate) were applied in the irrigation solution as needed and water was added on a regular basis. Supplemental lighting was provided with overhead metal halide 1000-Watt lamps as necessary. The plants were employed for testing when they reached the first through fourth true leaf stage.
(§2) Treatments consisted of the acid or esters of 4-amino-3-chloro-6-(4-chloro-2-fluoro-3-methoxyphenyl)-5-fluoropyridine-2-carboxylic acid (Compound A), each formulated as an SC (suspension concentrate), and various insecticidal components alone and in combination. Forms of compound A were applied on an acid equivalent basis.
(§3) For treatments comprised of formulated compounds, measured amounts of compounds were placed individually in 25 mL glass vials and diluted in a volume of 1.25% volume per volume (v/v) Agri-Dex® crop oil concentrate to obtain 12× stock solutions. […] Application solutions were prepared by adding an appropriate amount of each stock solution (e.g., 1 mL) and diluted to the appropriate final concentrations with the addition of […] of an aqueous mixture of 1.25% (v/v) crop oil concentrate so that the final spray solutions contained 1.25+/−0.05% (v/v) crop oil concentrate.
(§4) As required, additional water and/or 97:3 v/v acetone/DMSO was added to individual application solutions so that the final acetone and DMSO concentrations of the application solutions being compared were 8.1% and 0.25%, respectively.
(§5) All stock solutions and applications solutions were visually inspected for compound compatibility prior to application. Spray solutions were applied to the plant material with an overhead Mandel track sprayer equipped with 8002E nozzles calibrated to deliver 187 L/ha over an application area of 0.503 square meters (m^2) at a spray height of 18 to 20 inches (46 to 50 cm) above average plant canopy height. Control plants were sprayed in the same manner with the solvent blank.
(§6) The treated plants and control plants were placed in a greenhouse as described above and watered by sub-irrigation to prevent wash-off of the test compounds. After approximately 3 weeks, the condition of the test plants as compared to that of the untreated plants was determined visually and scored on a scale of 0 to 100 percent where 0 corresponds to no injury or growth inhibition and 100 corresponds to complete kill.
(§7) Colby's equation was used to determine the herbicidal effects expected from the mixtures (Colby, S. R. Calculation of the synergistic and antagonistic response of herbicide combinations. Weeds 1967, 15, 20-22.).
(§8) The following equation was used to calculate the expected activity of mixtures containing two active ingredients, A and B: Expected=A+B−(A×B/100)

[2] = test system: ECHCG; assay type: in vivo, Echinochloa crus-galli
Procedure: as §1, §2, §3, §4, §5, §6, §7, §8

[3] = test system: ECHCO; assay: Postemergence foliar-applied weed control, direct-seeded rice (greenhouse); assay type: in vivo, Echinochloa colonum; conditions: 300 g ai/ha alone
Procedure: as §1, §2, §3, §4, §5, §6, §7, §8

[4] = test system: IPOHE; assay type: in vivo, Ipomoea hederacea
Procedure: as §1, §2, §3, §4, §5, §6, §7, §8

[5] = test system: LEFCH; assay: whole plant or invertebrate; assay type: in vivo, Leptochloa chinensis; conditions: for pest or weed control at 140 g/ha / pest or weed control at 280 g/ha / pest or weed control at 560 g/ha: 22 DAA; for pest or weed control at 140 g/ha: 140 g ai/ha alone; for pest or weed control at 280 g/ha: 280 g ai/ha alone; for pest or weed control at 560 g/ha: 560 g ai/ha alone
Procedure: as §1, §2, §3, §4, §5, §6, §7, §8

[6] = test system: CYPRO; assay: In-water applied weed control, transplanted paddy rice (greenhouse); assay type: in vivo, Cyperus rotundus; conditions: 21 DAA
Procedure: (§9) Weed seeds or nutlets of the desired test plant species were planted in puddled soil (mud) prepared by mixing a shredded, non-sterilized mineral soil (50.5 percent silt, 25.5 percent clay, and 24 percent sand, with a pH of about 7.6 and an organic matter content of about 2.9 percent) and water at a 1:1 volumetric ratio. The prepared mud was dispensed in 365 mL aliquots into 16-ounce (oz.) non-perforated plastic pots with a surface area of 86.59 square centimeters (cm^2) leaving a headspace of 3 centimeters (cm) in each pot. Rice seeds were planted in Sun Gro MetroMix® 306 planting mixture, which typically has a pH of 6.0 to 6.8 and an organic matter content of about 30 percent, in plastic plug trays. Seedlings at the second or third leaf stage of growth were transplanted into 860 mL of mud contained in 32-oz. non-perforated plastic pots with a surface area of 86.59 cm^2 4 days prior to herbicide application. The paddy was created by filling the headspace of the pots with 2.5 to 3 cm of water. When required to ensure good germination and healthy plants, a fungicide treatment and/or other chemical or physical treatment was applied. The plants were grown for 4-22 days in a greenhouse with an approximate 14 h photoperiod which was maintained at about 29° C. during the day and about 26° C. during the night. Nutrients were added as Osmocote® (17:6:10, N:P:K+minor nutrients) at 2 grams (g) per 16-oz. pot and 4 g per 32-oz. pot. Water was added on a regular basis to maintain the paddy flood, and supplemental lighting was provided with overhead metal halide 1000-Watt lamps as necessary. The plants were employed for testing when they reached the first through fourth true leaf stage.
Treatments consisted of the acid or esters of 4-amino-3-chloro-5-fluoro-6-(4-chloro-2-fluoro-3-methoxy-phenyl)pyridine-2-carboxylic acid (compound A) each formulated as an SC (suspension concentrate) and various herbicidal components alone and in combination. Forms of compound A were applied on an acid equivalent basis.
Other […] components were applied on an active ingredient basis and consisted of etofenprox (technical grade material) and sulfoxaflor formulated as Sulfoxaflor WG.
(§10) Treatment requirements for each compound or herbicidal component were calculated based upon the rates being tested, the concentration of active ingredient or acid equivalent in the formulation, an application volume of 2 mL per component per pot, and an application area of 86.59 cm^2 per pot.
For formulated compounds, a measured amount was placed in an individual 100 or 200 mL glass vial and was dissolved in a volume of 1.25% (v/v) AgriDex® crop oil concentrate to obtain application solutions.
For technical grade compounds, a weighed amount was placed in an individual 100 to 200 mL glass vial and was dissolved in a volume of acetone to obtain concentrated stock solutions.
Applications were made by injecting with a pipetter appropriate amounts of the application solutions, individually and sequentially, into the aqueous layer of the paddy. Control plants were treated in the same manner with the solvent blank. Applications were made so that all treated plant material received the same concentrations of acetone and crop oil concentrate.
as §6, with “and water was added as needed” for “and watered by sub-irrigation”, “to maintain a paddy flood.” for “to prevent wash-off of the test compounds.”, “3 weeks” for “3 weeks,”, “compared with” for “compared to”
Colby's equation was used to determine the herbicidal effects expected from the mixtures (Colby, S. R. Calculation of the synergistic and antagonistic response of herbicide combinations. Weeds 1967, 15, 20-22.). […]

[7] = test system: ECHCG; assay: as above; assay type: in vivo, Echinochloa crus-galli
Procedure: as §9, with “stage. […]” for “stage.”
as §10
For formulated compounds, a measured amount was placed in an individual 100 or 200 mL glass vial and was dissolved in a volume of 1.25% (v/v) AgriDex® crop oil concentrate to obtain application solutions. […]
The treated plants and control plants were placed in a greenhouse as described above and water was added as needed to maintain a paddy flood. After approximately 3 weeks the condition of the test plants as compared with that of the untreated plants was determined visually and scored on a scale of 0 to 100 percent where 0 corresponds to no injury or growth inhibition and 100 corresponds to complete kill. […]

[8] = test system: DIGSA; assay type: in vivo, Digitaria sanguinalis; conditions: 22 DAA
Procedure: as §1, §2, §3, §4, §5, §6, §7, §8

[9] = test system: LEFFA; assay: Postemergence foliar-applied weed control, direct-seeded rice (greenhouse); assay type: in vivo, Leptochloa fascicularis; conditions: 22 DAA
Source text: (§11) Seeds or nutlets of the desired test plant species were planted in a soil matrix prepared by mixing a loam or sandy loam soil (e.g., 28.6 percent silt, 18.8 percent clay, and 52.6 percent sand, with a pH of about 5.8 and an organic matter content of about 1.8 percent) and calcareous grit in an 80 to 20 ratio. The soil matrix was contained in plastic pots with a volume of 1 quart and a surface area of 83.6 square centimeters (cm^2). When required to ensure good germination and healthy plants, a fungicide treatment and/or other chemical or physical treatment was applied. The plants were grown for 8-22 days in a greenhouse with an approximate 14 hour (h) photoperiod which was maintained at about 29° C. during the day and 26° C. during the night. Nutrients (Peters Excel® 15-5-15 5-Ca 2-Mg and iron chelate) were applied in the irrigation solution as needed and water was added on a regular basis. Supplemental lighting was provided with overhead metal halide 1000-Watt lamps as necessary. The plants were employed for testing when they reached the first through fourth true leaf stage.
as §2
(§12) Treatment requirements were calculated based upon the rates being tested, the concentration of active ingredient or acid equivalent in the formulation, and a 12 milliliter (mL) application volume at a rate of 187 liters per hectare (L/ha).
as §3, §4, §5, §6, §7, §8

[10] = test system: LEFPA; assay: as above; assay type: in vivo, Leptochloa panicoides
Source text: as §11, §2, §12, §3, §4, §5, §6, §7, §8

[11] = Dinebra chinensis, post-emergence, 528 h, read-out: Visual Weed Control (%) - 22 DAA LEFCH Obs
[12] = Dinebra chinensis, post-emergence, 528 h, second part of Table 18, read-out: Visual Weed Control (%) - 22 DAA LEFCH Obs

CCOc1ccc(C(C)(C)COCc2cccc(Oc3ccccc3)c2)cc1 [Etofenprox, 2-(4-ethoxyphenyl)-2-methylpropyl 3-phenoxybenzyl ether]
0%: Visual Weed Control (%) - 22 DAA CYPES Obs ([1]; 75 g ai/ha alone) | Visual Weed Control (%) - 22 DAA CYPES Obs ([1]; 150 g ai/ha alone) | Visual Weed Control (%) - 22 DAA ECHCG Obs ([2]; 75 g ai/ha alone) | Visual Weed Control (%) - 22 DAA ECHCG Obs ([2]; 150 g ai/ha alone) | Visual Weed Control (%) - 19 DAA ECHCG Obs ([2]; 300 g ai/ha alone) | Visual Weed Control (%) - 19 DAA ECHCO Obs [3] | Visual Weed Control (%) - 22 DAA IPOHE Obs ([4]; 75 g ai/ha alone) | Visual Weed Control (%) - 22 DAA IPOHE Obs ([4]; 150 g ai/ha alone) | Visual Weed Control (%) - 19 DAA LEFCH Obs ([5]; 300 g ai/ha alone) | pest or weed control at 150 g/ha ([5]; Dinebra chinensis, post-emergence, 528 h, 150 g ai/ha alone, read-out: Visual Weed Control (%) - 22 DAA LEFCH Obs) | Visual Weed Control (%) - 21 DAA CYPRO Obs ([6]; 75 g ai/ha alone) | Visual Weed Control (%) - 21 DAA CYPRO Obs ([6]; 150 g ai/ha alone) | Visual Weed Control (%) - 21 DAA CYPRO Obs ([6]; 300 g ai/ha alone) | Visual Weed Control (%) - 21 DAA ECHCG Obs ([7]; 75 g ai/ha alone) | Visual Weed Control (%) - 21 DAA ECHCG Obs ([7]; 150 g ai/ha alone) | Visual Weed Control (%) - 21 DAA ECHCG Obs ([7]; 300 g ai/ha alone)

CCOC(=O)CC(SP(=S)(OC)OC)C(=O)OCC (stereo not shown) [Malathion, S-1,2-bis(ethoxycarbonyl)ethyl O,O-dimethyl phosphorodithioate]
0%: Visual Weed Control (%) - 22 DAA DIGSA Obs ([8]; 140 g ai/ha alone) | Visual Weed Control (%) - 22 DAA DIGSA Obs ([8]; 140 g ai/ha alone, second part of Table 18) | Visual Weed Control (%) - 22 DAA DIGSA Obs ([8]; 280 g ai/ha alone) | Visual Weed Control (%) - 22 DAA DIGSA Obs ([8]; 280 g ai/ha alone, second part of Table 18) | Visual Weed Control (%) - 22 DAA DIGSA Obs ([8]; 560 g ai/ha alone) | Visual Weed Control (%) - 22 DAA DIGSA Obs ([8]; 560 g ai/ha alone, second part of Table 18) | Visual Weed Control (%) - 22 DAA ECHCG Obs ([2]; 22 DAA, 140 g ai/ha alone) | Visual Weed Control (%) - 22 DAA ECHCG Obs ([2]; 22 DAA, 280 g ai/ha alone) | Visual Weed Control (%) - 22 DAA ECHCG Obs ([2]; 22 DAA, 560 g ai/ha alone) | pest or weed control at 140 g/ha [5, 11] | pest or weed control at 140 g/ha [5, 12] | pest or weed control at 280 g/ha [5, 11] | pest or weed control at 280 g/ha [5, 12] | pest or weed control at 560 g/ha [5, 11] | pest or weed control at 560 g/ha [5, 12] | Visual Weed Control (%) - 22 DAA LEFFA Obs ([9]; 140 g ai/ha alone) | Visual Weed Control (%) - 22 DAA LEFFA Obs ([9]; 280 g ai/ha alone) | Visual Weed Control (%) - 22 DAA LEFFA Obs ([9]; 560 g ai/ha alone) | Visual Weed Control (%) - 22 DAA LEFPA Obs ([10]; 140 g ai/ha alone) | Visual Weed Control (%) - 22 DAA LEFPA Obs ([10]; 280 g ai/ha alone) | Visual Weed Control (%) - 22 DAA LEFPA Obs ([10]; 560 g ai/ha alone)
